Reference: US8889397B2, “Nucleotides for prevention and treatment of bacterial and fungal pathologies” (priority 2003, dated 2014)

How the values were obtained:
SM101 = test: inhibition of bacterial growth by ODN (OD600 or viable cell count); assay type: cell-based, E. coli; settings: ODN 40 μM or 400 μM, 30° C., 2, 4 or 6 h
Experimental: Immediately after diluting the O/N cultures 1/50, ODN was added to final concentrations of 4 uM, 40 μM or 400 μM with equal volume water as a negative control, and incubated with shaking at 30° C. After 2, 4 or 6 h, the growth was measured by viable cell count, which was done by diluting the cultures and plating on LB plates with streptomycin.
The inhibition of bacterial growth by ODN was evaluated by examining the effect of ODN dosage on SM101 growth. In this study, an ODN having the sequence CTC ATA CTC T was added to the 1/50 diluted O/N SM101 cell cultures, at final concentration of 40 μM or […] with addition of equal volume water as a negative control, and incubated with shaking at 30° C. After 2, 4 or 6 h, the growth was measured by either the optical density at 600 nm (OD600) or viable cell count, which was done by diluting the cultures and plating them in triplicate on LB plates with streptomycin.

FtsZ RNA = test: in vitro cleavage of FtsZ RNA by DNA enzyme in a cell-free system; assay type: biochemical; settings: 37° C., 100 nM template FtsZ RNA, 100 μM DNA enzyme, 10 mM MgCl2, pH 7.5; products 368 nt and 857 nt
Experimental: Lane 1 is a control reaction incubated for 2 hrs in the absence of DNA enzyme. S: substrate; P1 (857 nt) and P2 (368 nt): DNA enzyme digestion products.
The ability of the pssXGb(FtsZ-DZ) expression vector of the present invention to produce DNA enzyme molecules in bacterial cells was tested by evaluating the cleavage activity of the designed DNA enzyme in a cell-free system. The 1225 nt FtsZ RNA, produced by in vitro transcription, is used as a substrate and the cleavage assay is carried out at 37° C. for various period of time as indicated in a 10 μl reaction containing 10 mM MgCl2, 50 mM Tris-HCl, pH 7.5, 100 nM template FtsZ RNA, 100 μM DNA enzyme, and 10 units RNasin.

K12 = test: inhibition of bacterial growth by peptide-ODN conjugate (viable cell count); assay type: cell-based, E. coli; settings: conjugate 4 μM, 40 μM or 400 μM, 37° C., 2 hours
Experimental: The inhibition of bacterial growth by peptide-[…] conjugate was evaluated by examining the effect of conjugate dose on the ability of conjugate to inhibit K12 growth. In this study, a peptide-ODN conjugate having the sequence
was added to the 1/50 diluted O/N K12 cell cultures, and final concentration of 4 μM, 40 μM, or 400 μM, with addition of equal volume water as a negative control, and incubated with shaking at 37° C. Immediately after, diluting the O/N culture 1/50, peptide-ODN conjugate was added to final concentration of 4 μM, 40 μM, or […], with addition of equal volume water as a negative control, and incubated with shaking at 37° C. After 2 hours, growth was measured by viable cell count by diluting the cultures and plating in triplicate on LB plates. […] Reduction of Mouse Bacterial Load in Blood by Peptide-ODN Conjugate.

DH5αPro = test: conditionally lethal effect of ODN expression plasmid in DH5αPro on LB media with or without aTc; assay type: cell-based; settings: DH5αPro carrying the plasmid; with or without 200 ng/ml aTc
Experimental: Colonies were grown in duplicate in LB plates with or without aTc. Positive clone (containing the pssXGb vector including the sequence CYGX080103) is marked by an arrow.
The CYGX080103 plasmid and the plasmid without ODN insert as negative control were transformed into DH5αPro and plated onto LB media with or without 200 ng/ml aTc. […] DH5αPro carrying plasmid without the ODN insert grows on both media (FIG. 10B).
Since the ssDNA expression library was constructed based on a tetracycline inducible vector, bacterial cells containing the ssDNA expression library were plated in duplicate in Luria broth (LB) plates in the presence or absence 200 ng/ml aTc. […] Plasmid DNA was extracted from the positive colony from the library screening, and the insert sequences determined by 3′ end single-pass sequencing. The insert generated by this set of experiments was named CYGX080103, with sequence of:
The antibacterial efficacy of the ODN CYGX080103 was further evaluated in two separate experiments. The first was designed to examine the conditionally lethal effect of the ODN expression plasmid in the host cell DH5αPro, the bacterial strain employed in the library screening. The second experiment was designed to study the effect of the ODN expression plasmid on other bacterial strains. […]

E. coli XL10-gold(kan) = test: growth of XL10-gold(kan) transformed with ODN expression plasmid; assay type: cell-based; settings: XL10-gold(kan) transformants; LB with chloramphenicol, 37° C. O/N
Experimental: The transformants were plated on LB media with chloramphenicol and incubated at 37° C.
The antibacterial efficacy of the ODN CYGX080103 was further evaluated in two separate experiments. The first was designed to examine the conditionally lethal effect of the ODN expression plasmid in the host cell DH5αPro, the bacterial strain employed in the library screening. The second experiment was designed to study the effect of the ODN expression plasmid on other bacterial strains. In the first study, the ODN expression plasmid and the plasmid without ODN insert as negative control were transformed into DH5αPro and plated onto LB media with or without 200 ng/ml aTc. […] DH5αPro cells carrying the plasmid without the ODN insert grow on both media (FIG. 10B). In the second study, the ODN expression plasmid and the plasmid without ODN insert were transformed into E. coli XL10-gold(kan). The resulted transformants were plated on LB media with chloramphenicol and incubated at 37° C.
In this study, the ODN expression plasmid As080103, having the sequence CYGX080103 listed above, and plasmid pssxGb without ODN insert as negative control, were transformed into E. coli XL10-goldokan). The resulting cell cultures were plated on LB media with chloramphenicol and incubated at 37° C.

**Q.** With “5′(CTC ATA CTC T)3′ (DNA CTCATACTCT; chemistry not given here) [CYGXacpP, ODN targeting the bacterial essential fatty acid biosynthesis gene acpP]” as the molecule, how does the cell growth inhibited (SM101) read?
**A.** 86-96%

**Q.** For “5′-GTTTCGAAGGCTAGCTACAACGATCATCCAG-3′ (listed as DNA, chemistry not fully specified) [CYGXFtsZDZ, 31 nt 10-23 DNA enzyme targeted against the GU site at position 880 of FtsZ mRNA]”, which “cleavage of FtsZ RNA” value (FtsZ RNA) is on record?
**A.** effectively cleave the FtsZ RNA in as short a time as 0.5 hr

**Q.** For “KFFKFFKFFK-CTC ATA CTC T (KFFKFFKFFK peptide conjugated to PNA) [peptide-ODN conjugate, peptide-PNA conjugate]”, which cell growth inhibited (K12) is on record?
**A.** 82-99.8%

B1: 5′-CTTTCAACAGTTTTGATGACCTTTGCTGACCATACAATTGCGATATCGTGGGGAGTGAGAG-3′ (nucleic acid)
DNA: CTTTCAACAGTTTTGATGACCTTTGCTGACCATACAATTGCGATATCGTGGGGAGTGAGAG
modifications: expressed or natural sequence
notes: ODN insert of the positive clone from ssDNA expression library screening
**Q.** B1 was tested. Which “growth on LB media” value (DH5αPro) did it give?
**A.** grow normally on the media without aTc but not on media with aTc

**Q.** What about the “growth on LB media” value (E. coli XL10-gold(kan)) of the same molecule?
**A.** no XL10-gold(kan) carrying ODN expression plasmid grew
